The values below come from US7521062B2, “Thiosemicarbazones as anti-virals and immunopotentiators” (Novartis Vaccines & Diagnostics, Inc., priority 2002, dated 2009).

Assay [1] deals with TNF-alpha production by human PBMC. As to the kind of experiment: TNF-alpha production by human PBMC (ELISA). The assay is classed as cell-based. The conditions noted are these: for TNFa production: cytokine secretion of hPBMC after stimulation with thiosemicarbazone compounds; for SMIP activity (cytokine induction, TNF-alpha and IL-12 p40, % of LPS activity): human PBMC, 5 μM, FIG. 4. As to the method: Candidate small molecule immuno-potentiators can be identified in vitro. Compounds are screened in vitro for their ability to stimulate human peripheral blood mononuclear cells to produce cytokines (e.g. TNF-alpha and IL-12 p40). HCV antivirals were identified having this activity. These small molecule immuno-potentiators have potential utility as adjuvants and immuno-therapeutics.
TNF-alpha production by human PBMC was measured using a commercial ELISA from supernatants of cells stimulated with the indicated compounds for 18 to 24 hours All test compounds were used at a final concentration of 5 μM/ml. Untreated PBMC (Cells) and LPS (0.1 ng/ml), CPG (10 ng/ml) and/or ALTTE (5 μM/ml) treated PBMC served as negative and positive controls, respectively.
Table 2. Cytokine secretion of hPBMC after stimulation with thiosemicarbazone compounds.
High Throughput Screening (ITS) for small molecule immune potentiators; SMIPs: Attention is drawn to FIG. 3. Various compounds were evaluated for their ability to produce cytokines in response to the small molecule compounds using a modified sandwich ELISA. Compounds are screened for their TNF inducing. “Hits” are selected based on their TNF-inducing activity relative to an optimal dose a strong TNF inducer. The robustness of the assay and low backgrounds have allowed for the routine selection of hits with ˜10% of this activity which is normally between 5-10× background (cells alone). Selected hits are then subjected to confirmation for their ability to induce cytokines from multiple donors at decreasing concentrations. Those compounds with consistent activity at or below 5 μM are considered confirmed.
Thiosemicarbazones compounds with and without anti-HCV activity were screened for their capacity to activate immune cells. Structural analogs of this scaffold have been tested for their ability to induce cytokines from human PBMC and murine splenocytes. […] All compounds were tested at a final concentration of 5 μM except for poly I:C (PIC) and the 1806 oligodinucleotide (CpG) which were used at 10 μg/ml and 10 ng/ml respectively.
Background: In an ELISA, binding on a coated surface is turned into a signal by an enzyme label.

Assay [2] concerns HCV replicon RNA in Huh-11-7 or Huh 9-13 cells. Kind of assay: HCV replicon cell based assay (quantification of HCV replicon RNA by RT-PCR, normalized to GAPDH). The conditions noted are these: separate/independent assays. As to the method: Quantification of HCV replicon RNA in Cell Lines (HCV Cell Based Assay):
Cell lines, including Huh-11-7 or Huh 9-13, harboring HCV replicons (Lohmann, et al Science 285:110-113, 1999) are seeded at 5×10^3 cells/well in 96 well plates and fed media containing DMEM (high glucose), 10% fetal calf serum, penicillin-streptomycin and non-essential amino acids. Cells are incubated in a 5% CO2 incubator at 37° C. At the end of the incubation period, total RNA is extracted and purified from cells using Qiagen Rneasy 96 Kit (Catalog No. 74182). To amplify the HCV RNA so that sufficient material can be detected by an HCV specific probe (below), primers specific for HCV (below) mediate both the reverse transcription (RT) of the HCV RNA and the amplification of the cDNA by polymerase chain reaction (PCR) using the TaqMan One-Step RT-PCR Master Mix Kit (Applied Biosystems catalog no. 4309169). […]
Detection of the RT-PCR product was accomplished using the Applied Biosystem (ABI) Prism 7700 Sequence Detection System (SDS) that detects the fluorescence that is emitted when the probe, which is labeled with a fluorescence reporter dye and a quencher dye, is processed during the PCR reaction. The increase in the amount of fluorescence is measured during each cycle of PCR and reflects the increasing amount of RT-PCR product. […] The data is analyzed using the ABI SDS program version 1.7. […]

In the case of `COc1cc(/C=N/NC(N)=S)cc(Br)c1OCc1ccccc1F` [Example 39, 3-bromo-4-{[(2-fluorophenyl)methyl]oxy}-5-(methyloxy)benzaldehydethiosemicarbazone], in assay [1], the TNFa production is 5 ng/10^6 cells/ml.

For the compound `NC(=S)N/N=C/c1ccccn1` [Example 113, pyridine-2-carbaldehydethiosemicarbazone], the anti-HCV activity entry in assay [2] is given as “weak or absent anti-HCV effects”. In assay [1], the TNFa production is listed as 2.34 ng/10^6 cells/ml; the “SMIP activity (cytokine induction, TNF-alpha and IL-12 p40, % of LPS activity)” value is “potent SMIP activity”.

In the case of `C/C(=N\NC(N)=S)c1sc(-c2ncc(C(F)(F)F)cc2Cl)nc1C` [Example 114], in assay [1], the TNFa production amounted to 1.7 ng/10^6 cells/ml.

Turning to `NC(=S)N/N=C/c1ccc(NCCc2ccc(Cl)cc2)c([N+](=O)[O-])c1` [Example 87, 4-{[2-(4-chlorophenyl)ethyl]amino}-3-nitrobenzaldehydethiosemicarbazone], in assay [1], the TNFa production amounted to 1.25 ng/10^6 cells/ml.

Regarding `NC(=S)N/N=C/c1cccc(OCc2ccccc2)c1` [Example 7, 3-[(phenylmethyl)oxy]benzaldehydethiosemicarbazone], the TNFa production in assay [1] came out at 0 ng/10^6 cells/ml.

For the compound `Cc1ccc2c(c1)c1c(n2C)/C(=N/NC(N)=S)CCC1` [Example 115, (1E)-6,9-dimethyl-2,3,4,9-tetrahydro-1H-carbazol-1-onethiosemicarbazone], the TNFa production in assay [1] is given as 1.25 ng/10^6 cells/ml.

`NC(=S)N/N=C/c1ccc(-c2cccc(Cl)c2)o1` [Example 12, 5-(3-chlorophenyl)furan-2-carbaldehyde thiosemicarbazone]: the TNFa production in assay [1] is on record as 2.32 ng/10^6 cells/ml.

On to `NC(=S)N/N=C/c1ccc(NCCc2cccc(Cl)c2)c([N+](=O)[O-])c1` [Example 86, 4-{[2-(3-chlorophenyl)ethyl]amino}-3-nitrobenzaldehydethiosemicarbazone], for which, in assay [1], the TNFa production is 5 ng/10^6 cells/ml.

Take `CCN(CC)c1ccc(/C=N/NC(N)=S)c(OCc2ccc(Cl)cc2)c1` [Example 29, 2-{[(4-chlorophenyl)methyl]oxy}-4-(diethylamino)benzaldehydethiosemicarbazone]: in assay [2], the anti-HCV activity result is “possess both SMIP and anti-HCV activity”. Besides, in assay [1], the “SMIP activity (cytokine induction, TNF-alpha and IL-12 p40, % of LPS activity)” value is “possess both SMIP and anti-HCV activity”.
